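A five-concentration, 48-hour dose response in 96-well plates underlies each endpoint, interpolated linearly between surrounding concentrations. The concentration for 50% growth inhibition is given as GI50. TGI: total growth inhibition.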
What was measured:
Test in all cases: NCI-60 cell line screen, 48 h; in the data active = GI50 below about 0.43 µM; inactive = the rest
NCI-H23 lung = system: NCI-H23 lung
CCRF-CEM leukemia = system: CCRF-CEM leukemia
UACC-257 melanoma = system: UACC-257 melanoma
SR leukemia = system: SR leukemia
SNB-75 CNS = system: SNB-75 CNS
HT29 colon = system: HT29 colon
HOP-62 NSCLC = system: HOP-62 NSCLC
786-0 renal = system: 786-0 renal
MOLT-4 leukemia = system: MOLT-4 leukemia
COLO 205 colon = system: COLO 205 colon
MDA-MB-231 breast = system: MDA-MB-231 breast
RPMI-8226 leukemia = system: RPMI-8226 leukemia
T-47D breast = system: T-47D breast
EKVX NSCLC = system: EKVX NSCLC
MDA-N = system: MDA-N
RXF 393 renal = system: RXF 393 renal
SW-620 colon = system: SW-620 colon
M14 melanoma = system: M14 melanoma
DU-145 prostate = system: DU-145 prostate
CAKI-1 renal = system: CAKI-1 renal
SK-MEL-5 melanoma = system: SK-MEL-5 melanoma
HCT-15 colon = system: HCT-15 colon
OVCAR-8 ovarian = system: OVCAR-8 ovarian
SN12C renal = system: SN12C renal
A549 NSCLC = system: A549 NSCLC
SK-OV-3 ovarian = system: SK-OV-3 ovarian
HCC-2998 colon = system: HCC-2998 colon
K-562 leukemia = system: K-562 leukemia
IGROV1 ovarian = system: IGROV1 ovarian
MALME-3M melanoma = system: MALME-3M melanoma
MCF7 breast = system: MCF7 breast
HL-60(TB) leukemia = system: HL-60(TB) leukemia
SF-295 CNS = system: SF-295 CNS
SF-268 CNS = system: SF-268 CNS
TK-10 renal = system: TK-10 renal
UACC-62 melanoma = system: UACC-62 melanoma
PC-3 prostate = system: PC-3 prostate
SK-MEL-28 melanoma = system: SK-MEL-28 melanoma
KM12 colon = system: KM12 colon
A498 renal = system: A498 renal
SK-MEL-2 melanoma = system: SK-MEL-2 melanoma
HS 578T breast = system: HS 578T breast
NCI-H522 lung = system: NCI-H522 lung
SF-539 CNS = system: SF-539 CNS
OVCAR-4 ovarian = system: OVCAR-4 ovarian
NCI/ADR-RES ovarian = system: NCI/ADR-RES ovarian
MDA-MB-435 = system: MDA-MB-435
NCI-H226 lung = system: NCI-H226 lung
HCT-116 colon = system: HCT-116 colon
OVCAR-5 ovarian = system: OVCAR-5 ovarian
LOX IMVI melanoma = system: LOX IMVI melanoma
OVCAR-3 ovarian = system: OVCAR-3 ovarian
BT-549 breast = system: BT-549 breast
UO-31 renal = system: UO-31 renal
NCI-H460 lung = system: NCI-H460 lung
U251 CNS = system: U251 CNS
SNB-19 CNS = system: SNB-19 CNS
HOP-92 NSCLC = system: HOP-92 NSCLC
ACHN renal = system: ACHN renal

O=[N+]([O-])c1ccc(/C=N/Nc2nnc3c4ccccc4c4ncccc4c3n2)o1
> 10 µM: TGI (NCI-H23 lung) | TGI (CCRF-CEM leukemia) | TGI (UACC-257 melanoma) | TGI (SR leukemia) | TGI (SNB-75 CNS) | TGI (HT29 colon) | TGI (HOP-62 NSCLC) | TGI (786-0 renal) | TGI (MOLT-4 leukemia) | TGI (COLO 205 colon) | TGI (MDA-MB-231 breast) | TGI (RPMI-8226 leukemia) | TGI (T-47D breast) | TGI (EKVX NSCLC) | TGI (MDA-N) | TGI (RXF 393 renal) | TGI (SW-620 colon) | TGI (M14 melanoma) | TGI (DU-145 prostate) | TGI (CAKI-1 renal) | TGI (SK-MEL-5 melanoma) | TGI (HCT-15 colon) | TGI (OVCAR-8 ovarian) | TGI (SN12C renal) | TGI (A549 NSCLC) | TGI (SK-OV-3 ovarian) | TGI (HCC-2998 colon) | TGI (K-562 leukemia) | TGI (IGROV1 ovarian) | TGI (MALME-3M melanoma) | TGI (MCF7 breast) | TGI (HL-60(TB) leukemia) | TGI (SF-295 CNS) | TGI (SF-268 CNS) | TGI (TK-10 renal) | TGI (UACC-62 melanoma) | TGI (PC-3 prostate) | TGI (SK-MEL-28 melanoma) | TGI (KM12 colon)

COC(C(=O)C(O)C(C)O)C1CC2C=C3C=C(OC4CC(OC5CC(O)C(OC)C(C)O5)C(OC(C)=O)C(C)O4)C(C)C(=O)C3=C(O)C2=C(O)C1OC1CC(OC2CC(OC3CC(C)(O)C(OC(=O)C(C)C)C(C)O3)C(O)C(C)O2)C(O)C(C)O1 (stereo not given)
0.425 µM: TGI (NCI/ADR-RES ovarian)
< 0.01 µM: TGI (NCI-H23 lung) | TGI (A498 renal) | TGI (UACC-257 melanoma) | TGI (SR leukemia) | TGI (SNB-75 CNS) | TGI (SK-MEL-2 melanoma) | TGI (HS 578T breast) | TGI (HOP-62 NSCLC) | TGI (786-0 renal) | TGI (NCI-H522 lung) | TGI (SF-539 CNS) | TGI (COLO 205 colon) | TGI (MDA-MB-231 breast) | TGI (RPMI-8226 leukemia) | TGI (T-47D breast) | TGI (EKVX NSCLC) | TGI (MDA-N) | TGI (RXF 393 renal) | TGI (M14 melanoma) | TGI (DU-145 prostate) | TGI (SK-MEL-5 melanoma) | TGI (OVCAR-8 ovarian) | TGI (SN12C renal) | TGI (HCC-2998 colon) | TGI (K-562 leukemia) | TGI (MALME-3M melanoma) | TGI (HL-60(TB) leukemia) | TGI (SF-268 CNS) | TGI (UACC-62 melanoma) | TGI (SK-MEL-28 melanoma) | TGI (KM12 colon) | TGI (MDA-MB-435) | TGI (NCI-H226 lung)
> 100 µM: TGI (MOLT-4 leukemia) | TGI (CAKI-1 renal) | TGI (OVCAR-4 ovarian) | TGI (SK-OV-3 ovarian) | TGI (IGROV1 ovarian) | TGI (MCF7 breast) | TGI (TK-10 renal) | TGI (HCT-116 colon)

COC1=CC(=O)C(OC)=C(OC)C1=O
33.1 µM: TGI (SK-MEL-2 melanoma)
37.6 µM: TGI (IGROV1 ovarian)
42.9 µM: TGI (RPMI-8226 leukemia)
25.6 µM: TGI (SNB-75 CNS)
9.69 µM: TGI (OVCAR-4 ovarian)
29.6 µM: TGI (HCT-116 colon)
53.1 µM: TGI (MCF7 breast)
25.3 µM: TGI (ACHN renal)
29.3 µM: TGI (U251 CNS)
5.13 µM: TGI (MDA-MB-231 breast)
29.8 µM: TGI (EKVX NSCLC)
25.1 µM: TGI (LOX IMVI melanoma)
8.39 µM: TGI (CCRF-CEM leukemia)
9.04 µM: TGI (SR leukemia)
27.7 µM: TGI (UACC-257 melanoma)
5.5 µM: TGI (MOLT-4 leukemia)
inactive: GI50 (NCI-H23 lung) 14.9 µM | GI50 (CCRF-CEM leukemia) 2.8 µM | GI50 (A498 renal) > 100 µM | GI50 (UACC-257 melanoma) 14.2 µM | GI50 (OVCAR-5 ovarian) 17.3 µM | GI50 (SR leukemia) 2.71 µM | GI50 (SNB-75 CNS) 12.1 µM | GI50 (SK-MEL-2 melanoma) 9.98 µM | GI50 (HS 578T breast) 28 µM | GI50 (HT29 colon) 22.5 µM | GI50 (HOP-62 NSCLC) 16.2 µM | GI50 (786-0 renal) 18.3 µM | GI50 (MOLT-4 leukemia) 2.07 µM | GI50 (NCI-H522 lung) 3.21 µM | GI50 (SF-539 CNS) 16.5 µM | GI50 (COLO 205 colon) 15.1 µM | GI50 (LOX IMVI melanoma) 12 µM | GI50 (OVCAR-3 ovarian) 17.2 µM | GI50 (MDA-MB-231 breast) 2.33 µM | GI50 (RPMI-8226 leukemia) 14.7 µM | GI50 (T-47D breast) 10.3 µM | GI50 (EKVX NSCLC) 15.9 µM | GI50 (RXF 393 renal) 17.1 µM | GI50 (SW-620 colon) 18 µM | GI50 (M14 melanoma) 15.6 µM | GI50 (BT-549 breast) 16.7 µM | GI50 (DU-145 prostate) 16 µM | GI50 (CAKI-1 renal) 16.1 µM | GI50 (SK-MEL-5 melanoma) 16.2 µM | GI50 (HCT-15 colon) 16.2 µM | GI50 (OVCAR-8 ovarian) 15.5 µM | GI50 (OVCAR-4 ovarian) 3.05 µM | GI50 (SN12C renal) 15.1 µM | GI50 (A549 NSCLC) 49.5 µM | GI50 (SK-OV-3 ovarian) 72.9 µM | GI50 (HCC-2998 colon) > 100 µM | GI50 (K-562 leukemia) 2.29 µM | GI50 (IGROV1 ovarian) 19.7 µM | GI50 (MALME-3M melanoma) 18 µM | GI50 (UO-31 renal) 13 µM | GI50 (NCI/ADR-RES ovarian) 17.5 µM | GI50 (MCF7 breast) 21.5 µM | GI50 (NCI-H460 lung) 77 µM | GI50 (HL-60(TB) leukemia) 2.92 µM | GI50 (U251 CNS) 15.1 µM | GI50 (SNB-19 CNS) 21.5 µM | GI50 (SF-295 CNS) 17.8 µM | GI50 (HOP-92 NSCLC) 9.38 µM | GI50 (ACHN renal) 12.8 µM | GI50 (SF-268 CNS) 17.1 µM | GI50 (TK-10 renal) 15.3 µM | GI50 (UACC-62 melanoma) 14.4 µM | GI50 (PC-3 prostate) 14.9 µM | GI50 (SK-MEL-28 melanoma) 28.3 µM | GI50 (MDA-MB-435) 3.16 µM | GI50 (NCI-H226 lung) 18.7 µM | GI50 (HCT-116 colon) 16 µM
32.8 µM: TGI (PC-3 prostate)
30 µM: TGI (NCI-H23 lung) | TGI (CAKI-1 renal) | TGI (TK-10 renal)
33.7 µM: TGI (HCT-15 colon)
> 100 µM: TGI (A498 renal) | TGI (HS 578T breast) | TGI (A549 NSCLC) | TGI (SK-OV-3 ovarian) | TGI (HCC-2998 colon) | TGI (NCI-H460 lung)
39.2 µM: TGI (NCI-H226 lung)
27.9 µM: TGI (UACC-62 melanoma)
31.1 µM: TGI (OVCAR-3 ovarian)
33 µM: TGI (OVCAR-5 ovarian)
35.1 µM: TGI (SW-620 colon)
8.73 µM: TGI (HL-60(TB) leukemia)
30.4 µM: TGI (BT-549 breast)
94.1 µM: TGI (SK-MEL-28 melanoma)
28.8 µM: TGI (SN12C renal)
30.2 µM: TGI (SK-MEL-5 melanoma)
17.4 µM: TGI (NCI-H522 lung)
22.4 µM: TGI (HOP-92 NSCLC)
53.8 µM: TGI (HT29 colon)
52.8 µM: TGI (SNB-19 CNS)
30.9 µM: TGI (SF-539 CNS) | TGI (RXF 393 renal) | TGI (SF-268 CNS)
6.05 µM: TGI (K-562 leukemia)
33.5 µM: TGI (SF-295 CNS)
29.7 µM: TGI (HOP-62 NSCLC) | TGI (M14 melanoma) | TGI (DU-145 prostate)
26.3 µM: TGI (UO-31 renal)
36.6 µM: TGI (NCI/ADR-RES ovarian)
30.7 µM: TGI (OVCAR-8 ovarian)
32.2 µM: TGI (T-47D breast)
29 µM: TGI (COLO 205 colon)
32.5 µM: TGI (786-0 renal)
35.6 µM: TGI (MALME-3M melanoma)
11.1 µM: TGI (MDA-MB-435)
